Laboratory results published in patent publication US20050026968A1, “Heterocyclic amides with anti-tuberculosis activity” (priority 2003, published 2005).
In brackets after ≈: the same amount, converted by molar mass. Where two headings read alike, the source gives them in different places.

Experiments:
[1] = Maximum Tolerated Dose (MTD), single oral dose; settings: mice, oral gavage, escalating dose 100, 300 and 500 mg/kg
Method: An assay for Maximum Tolerated Dose (MTD) was also utilized. […] Three different concentrations are tested, generally at 100, 300 and 500 mg/kg. The latter dose is about twice to five times the dose used for efficacy testing of the compound in mice. After 7 days of observation the mice are sacrificed and the organs are studied for any adverse effects. In case of abnormalities the organs are fixed in formalin and given for extensive pathology analysis.
Maximum tolerated dosing was performed on these selected compounds. An escalating dose of drug (100, 300 and 500 mg/kg) was given to mice by oral gavage.

[2] = target: UDP-galactose mutase (Glf) (Mycobacterium tuberculosis, UniProt P9WIQ1); experiment: microtitre plate based screen of Glf (enzymatic inhibition); assay type: biochemical; settings: in words
M. tuberculosis H37Ra = experiment: MIC against M. tuberculosis H37Ra, micro broth dilution in microtiter plates; settings: for MIC / MIC90: Mycobacterium tuberculosis, H37RA
M. tuberculosis = assay type: in vivo, mice; settings: in words
[3] = Table 6, M. tuberculosis H37Ra, MIC90

Sequence of UDP-galactose mutase (Glf) (P9WIQ1 whole entry): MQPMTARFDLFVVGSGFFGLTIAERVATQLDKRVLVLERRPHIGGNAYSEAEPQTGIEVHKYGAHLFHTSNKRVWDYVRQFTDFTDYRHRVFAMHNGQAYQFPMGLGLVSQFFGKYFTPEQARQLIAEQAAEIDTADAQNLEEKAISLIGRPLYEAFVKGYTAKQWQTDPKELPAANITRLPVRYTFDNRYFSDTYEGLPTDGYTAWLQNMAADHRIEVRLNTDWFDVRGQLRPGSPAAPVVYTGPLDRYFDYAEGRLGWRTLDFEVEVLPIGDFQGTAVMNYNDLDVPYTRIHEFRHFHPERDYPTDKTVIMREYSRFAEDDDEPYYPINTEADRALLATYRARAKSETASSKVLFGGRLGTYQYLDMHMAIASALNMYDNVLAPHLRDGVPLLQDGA

Row | SMILES | MIC (M. tuberculosis H37Ra; [3]) [µg/mL] | further results
1 | O=C(Nc1cccc(Cl)c1)c1ccc([N+](=O)[O-])o1 [Compound 10, 5-Nitro-furan-2-carboxylic acid(3-chloro-phenyl)-amide] |  | maximum tolerated dosing, observed effect [1]: no effect at the maximum dose; enzymatic inhibition of Glf [2]: best inhibitors of GIf
2 | O=C(Nc1cccc(F)c1)c1ccc([N+](=O)[O-])o1 [Compound 12, 5-Nitro-furan-2-carboxylic acid(3-fluoro-phenyl)-amide] |  | maximum tolerated dosing, observed effect [1]: no effect at the maximum dose
3 | COc1cccc(NC(=O)c2ccc([N+](=O)[O-])o2)c1 [Compound 13, 5-Nitro-furan-2-carboxylic acid(3-methoxy-phenyl)-amide] |  | maximum tolerated dosing, observed effect [1]: some pathology at 500 mg/kg; enzymatic inhibition of Glf [2]: best inhibitors of GIf
4 | COc1ccc(CNC(=O)c2ccc([N+](=O)[O-])o2)cc1OC [Compound 23, 5-Nitro-furan-2-carboxylic acid 3,4-dimethoxy-benzylamide] |  | MIC (M. tuberculosis H37Ra): 200 µg/mL (≈ 653 µM); MIC (M. tuberculosis H37Ra; 168 h, read-out: TB MIC, Table 1, M. tuberculosis H37Ra, 7 days, MIC90 (>90% inhibition of growth)): 0.2 µg/mL (≈ 0.653 µM); MIC activity compared with classical TB drugs (FIG. 1) (M. tuberculosis H37Ra; against H37Ra, in words): as active as ethambutol and streptomycin; maximum tolerated dosing, observed effect [1]: no effect at the maximum dose; oral activity against M. tuberculosis in the mouse infection model (M. tuberculosis): significant oral activity
5 | NC1CCN(c2ccc(CNC(=O)c3ccc([N+](=O)[O-])o3)cc2)C1 (stereo not drawn) [Compound 95, 5-Nitro-furan-2-carboxylic acid 4-(3-amino-pyrrolidin-1-yl)-benzylamide] | 0.8 (≈ 2.42 µM) | 
6 | CC(C)(C)OC(=O)N1CCN(c2ccc(CNC(=O)c3ccc([N+](=O)[O-])o3)cc2)CC1 [Compound 96, 4-(4-{[(5-Nitro-furan-2-carbonyl)-amino]-methyl}-phenyl)-piperazine-1-carboxylic acid tert-butyl ester] | 0.0002 (≈ 0.000465 µM) | 
7 | O=C(NCc1ccc(N2CCNCC2)cc1)c1ccc([N+](=O)[O-])o1 [Compound 97, 5-Nitro-furan-2-carboxylic acid 4-piperazin-1-yl-benzylamide] | 0.8 (≈ 2.42 µM) | 
8 | O=C(NCc1ccc(N2CCN(CC3CC3)CC2)cc1)c1ccc([N+](=O)[O-])o1 [Compound 98, 5-Nitro-furan-2-carboxylic acid 4-(4-cyclopropylmethyl-piperazin-1-yl)-benzylamide] | 0.05 (≈ 0.13 µM) | 
9 | O=C(NCc1ccc(N2CCN(Cc3ccccc3)CC2)c(F)c1)c1ccc([N+](=O)[O-])o1 [Compound 99, 5-Nitro-furan-2-carboxylic acid 4-(4-benzyl-piperazin-1-yl)-3-fluoro-benzylamide] | 0.0125 (≈ 0.0285 µM) | 
10 | CN1CCN(c2ccc(CNC(=O)c3ccc([N+](=O)[O-])o3)cc2F)CC1 [Compound 100, 5-Nitro-furan-2-carboxylic acid 3-fluoro-4-(4-methyl-piperazin-1-yl)-benzylamide] | 0.4 (≈ 1.1 µM) | 
11 | O=C(NCc1ccc(N2CCSCC2)c(F)c1)c1ccc([N+](=O)[O-])o1 [Compound 101, 5-Nitro-furan-2-carboxylic acid 3-fluoro-4-thiomorpholin-4-yl-benzylamide] | 0.2 (≈ 0.547 µM) | 
12 | O=C(NCc1ccc(N2CCOCC2)c(F)c1)c1ccc([N+](=O)[O-])o1 [Compound 102, 5-Nitro-furan-2-carboxylic acid 3-fluoro-4-morpholin-4-yl-benzylamide] | 0.2 (≈ 0.573 µM) | 
13 | O=C(NCc1ccc(N2CCC(Cc3ccccc3)CC2)c(F)c1)c1ccc([N+](=O)[O-])o1 [Compound 103, 5-Nitro-furan-2-carboxylic acid 4-(4-benzyl-piperidin-1-yl)-3-fluoro-benzylamide] | 0.0125 (≈ 0.0286 µM) | 
14 | CCOC(=O)N1CCN(c2ccc(CNC(=O)c3ccc([N+](=O)[O-])o3)cc2)CC1 [Compound 104, 4-(4-{[(5-Nitro-furan-2-carbonyl)-amino]-methyl}-phenyl)-piperazine-1-carboxylic acid ethyl ester] | 0.004 (≈ 0.00994 µM) | 
15 | CCCNC(=O)N1CCN(c2ccc(CNC(=O)c3ccc([N+](=O)[O-])o3)cc2)CC1 [Compound 105, 4-(4-{[(5-Nitro-furan-2-carbonyl)-amino]-methyl}-phenyl)-piperazine-1-carboxylic acid propylamide] | 0.0125 (≈ 0.0301 µM) | 
16 | CC(C)NC(=O)N1CCN(c2ccc(CNC(=O)c3ccc([N+](=O)[O-])o3)cc2)CC1 [Compound 106, 4-(4-{[(5-Nitro-furan-2-carbonyl)-amino]-methyl}-phenyl)-piperazine-1-carboxylic acid isopropylamide] | 0.0062 (≈ 0.0149 µM) | 
17 | NNC(=O)c1ccncc1 [Isoniazid, isoniazid, reference compound] |  | MIC90 (M. tuberculosis H37Ra): 0.05 µg/mL (≈ 0.365 µM)
18 | CC[C@@H](CO)NCCN[C@@H](CC)CO [ethambutol, reference compound] |  | MIC90 (M. tuberculosis H37Ra): 0.78 µg/mL (≈ 3.82 µM)
